Experimental data as given in the supplement of paper PMC10307832.

Key:
Assay in all cases: relative viability (nuclei count vs DMSO), 5 days (fraction); higher = more cells survive
[1] = test system: 201T
Summary of the method: (§1)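 A single step with final 0.05% Triton X-100, 1% formaldehyde and 1 ug/ml Hoechst fixed the cells and stained nuclei 5 days after treatment. Lung cancer cell lines in 1536-well plates had been treated by pin tool the day after seeding with one drug alone or a fixed anchor-drug dose plus five library-drug doses (not always all listed) in √10 steps, and nuclei were counted on 4× images. Relative viability is the ratio of nuclei in treated wells to nuclei in vehicle wells, taken as the median of duplicate plates.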

[2] = test system: A-427
Summary of the method: as §1

[3] = test system: COR-L23
Summary of the method: as §1

[4] = test system: H3255
Summary of the method: as §1

[5] = test system: LCLC-103H
Summary of the method: as §1

[6] = test system: LCLC-97TM1
Summary of the method: as §1

[7] = test system: LK-2
Summary of the method: as §1

[8] = test system: LU99A
Summary of the method: as §1

[9] = test system: NCI-H1563
Summary of the method: as §1

[10] = test system: NCI-H1650
Summary of the method: as §1

[11] = test system: NCI-H1651
Summary of the method: as §1

[12] = test system: NCI-H1793
Summary of the method: as §1

[13] = test system: NCI-H1944
Summary of the method: as §1

[14] = test system: NCI-H2347
Summary of the method: as §1

[15] = test system: NCI-H23
Summary of the method: as §1

[16] = test system: NCI-H460
Summary of the method: as §1

[17] = test system: NCI-H650
Summary of the method: as §1

[18] = test system: NCI-H727
Summary of the method: as §1

[19] = test system: NCI-H838
Summary of the method: as §1

[20] = test system: PC-14
Summary of the method: as §1

[21] = test system: PC-3 [JPC-3]
Summary of the method: as §1

[22] = test system: RERF-LC-KJ
Summary of the method: as §1

[23] = test system: SW 1573
Summary of the method: as §1

[24] = test system: SW 900
Summary of the method: as §1

C[C@@H]1CN(CC(=O)Nc2ccc3c(c2)Cc2cccc(-c4cc(=O)cc(N5CCOCC5)o4)c2S3)C[C@H](C)O1 + CCNC(=O)c1noc(-c2cc(C(C)C)c(O)cc2O)c1-c1ccc(CN2CCOCC2)cc1 [Luminespib] (partner 0.01 µM)
relative viability ([1]; first compound 0.04 µM): 1.06
relative viability ([1]; first compound 0.1265 µM): 1.05
relative viability ([1]; first compound 0.4 µM): 1.04
relative viability ([1]; first compound 4 µM): 1.01
relative viability ([2]; first compound 0.1265 µM): 0.884
relative viability ([2]; first compound 0.4 µM): 1.02
relative viability ([2]; first compound 4 µM): 1.02
relative viability ([3]; first compound 0.04 µM): 0.793
relative viability ([3]; first compound 0.1265 µM): 0.705
relative viability ([3]; first compound 0.4 µM): 0.729
relative viability ([3]; first compound 4 µM): 0.458
relative viability ([4]; first compound 0.04 µM): 0.952
relative viability ([4]; first compound 0.1265 µM): 0.767
relative viability ([4]; first compound 0.4 µM): 0.912
relative viability ([4]; first compound 4 µM): 0.881
relative viability ([5]; first compound 0.04 µM): 0.949
relative viability ([5]; first compound 0.1265 µM): 0.971
relative viability ([5]; first compound 0.4 µM): 0.906
relative viability ([5]; first compound 4 µM): 0.72
relative viability ([6]; first compound 0.04 µM): 0.657
relative viability ([6]; first compound 0.1265 µM): 0.828
relative viability ([6]; first compound 0.4 µM): 0.749
relative viability ([6]; first compound 4 µM): 0.813
relative viability ([7]; first compound 0.1265 µM): 0.202
relative viability ([7]; first compound 0.4 µM): 0.24
relative viability ([7]; first compound 4 µM): 0.188
relative viability ([8]; first compound 0.04 µM): 0.304
relative viability ([8]; first compound 0.1265 µM): 0.192
relative viability ([8]; first compound 0.4 µM): 0.26
relative viability ([8]; first compound 4 µM): 0.231
relative viability ([9]; first compound 0.04 µM): 0.512
relative viability ([9]; first compound 0.1265 µM): 0.514
relative viability ([9]; first compound 0.4 µM): 0.477
relative viability ([9]; first compound 4 µM): 0.514
relative viability ([10]; first compound 0.04 µM): 0.212
relative viability ([10]; first compound 0.1265 µM): 0.23
relative viability ([10]; first compound 0.4 µM): 0.18
relative viability ([10]; first compound 4 µM): 0.171
relative viability ([11]; first compound 0.04 µM): 0.891
relative viability ([11]; first compound 0.1265 µM): 0.719
relative viability ([11]; first compound 0.4 µM): 0.885
relative viability ([11]; first compound 4 µM): 0.634
relative viability ([12]; first compound 0.04 µM): 0.141
relative viability ([12]; first compound 0.1265 µM): 0.177
relative viability ([12]; first compound 0.4 µM): 0.164
relative viability ([12]; first compound 4 µM): 0.135
relative viability ([13]; first compound 0.04 µM): 0.676
relative viability ([13]; first compound 0.1265 µM): 0.729
relative viability ([13]; first compound 0.4 µM): 0.938
relative viability ([13]; first compound 4 µM): 0.824
relative viability ([14]; first compound 0.04 µM): 0.926
relative viability ([14]; first compound 0.1265 µM): 0.475
relative viability ([14]; first compound 0.4 µM): 0.438
relative viability ([14]; first compound 4 µM): 0.534
relative viability ([15]; first compound 0.04 µM): 0.205
relative viability ([15]; first compound 0.1265 µM): 0.213
relative viability ([15]; first compound 0.4 µM): 0.227
relative viability ([15]; first compound 4 µM): 0.178
relative viability ([16]; first compound 0.04 µM): 0.0317
relative viability ([16]; first compound 0.1265 µM): 0.0406
relative viability ([16]; first compound 0.4 µM): 0.0348
relative viability ([16]; first compound 4 µM): 0.0326
relative viability ([17]; first compound 0.04 µM): 0.836
relative viability ([17]; first compound 0.1265 µM): 0.827
relative viability ([17]; first compound 0.4 µM): 0.831
relative viability ([17]; first compound 4 µM): 0.738
relative viability ([18]; first compound 0.04 µM): 0.362
relative viability ([18]; first compound 0.1265 µM): 0.603
relative viability ([18]; first compound 0.4 µM): 0.37
relative viability ([18]; first compound 4 µM): 0.388
relative viability ([19]; first compound 0.04 µM): 0.383
relative viability ([19]; first compound 0.1265 µM): 0.278
relative viability ([19]; first compound 0.4 µM): 0.286
relative viability ([19]; first compound 4 µM): 0.258
relative viability ([20]; first compound 0.04 µM): 0.142
relative viability ([20]; first compound 0.1265 µM): 0.122
relative viability ([20]; first compound 0.4 µM): 0.15
relative viability ([20]; first compound 4 µM): 0.144
relative viability ([21]; first compound 0.04 µM): 0.744
relative viability ([21]; first compound 0.1265 µM): 0.684
relative viability ([21]; first compound 0.4 µM): 0.728
relative viability ([21]; first compound 4 µM): 0.605
relative viability ([22]; first compound 0.04 µM): 1.18
relative viability ([22]; first compound 0.1265 µM): 1.18
relative viability ([22]; first compound 0.4 µM): 1.19
relative viability ([22]; first compound 4 µM): 0.709
relative viability ([23]; first compound 0.04 µM): 0.215
relative viability ([23]; first compound 0.1265 µM): 0.386
relative viability ([23]; first compound 0.4 µM): 0.207
relative viability ([23]; first compound 4 µM): 0.366
relative viability ([24]; first compound 0.04 µM): 0.166
relative viability ([24]; first compound 0.1265 µM): 0.165
relative viability ([24]; first compound 0.4 µM): 0.169
relative viability ([24]; first compound 4 µM): 0.178
